Test results reported in paper PMC12069692, “Pharmacological inhibition of PLK1/PRC1 triggers mitotic catastrophe and sensitizes lung cancers to chemotherapy” (Cell Death & Disease, 2025).

Biological target: T1, PLK1 (Homo sapiens, UniProt P53350)
T1 construct: Recombinant PLK1 protein (Active Motif 81429) in SPR; Flag-PBD in Co-IP-MS
Experiment: SPR (Biacore T200, immobilized PLK1); supported by T1rho NMR, CETSA, Co-IP-MS, in vitro kinase assay (IC50 […])
Assay type: binding

T1 sequence (P53350 2-603): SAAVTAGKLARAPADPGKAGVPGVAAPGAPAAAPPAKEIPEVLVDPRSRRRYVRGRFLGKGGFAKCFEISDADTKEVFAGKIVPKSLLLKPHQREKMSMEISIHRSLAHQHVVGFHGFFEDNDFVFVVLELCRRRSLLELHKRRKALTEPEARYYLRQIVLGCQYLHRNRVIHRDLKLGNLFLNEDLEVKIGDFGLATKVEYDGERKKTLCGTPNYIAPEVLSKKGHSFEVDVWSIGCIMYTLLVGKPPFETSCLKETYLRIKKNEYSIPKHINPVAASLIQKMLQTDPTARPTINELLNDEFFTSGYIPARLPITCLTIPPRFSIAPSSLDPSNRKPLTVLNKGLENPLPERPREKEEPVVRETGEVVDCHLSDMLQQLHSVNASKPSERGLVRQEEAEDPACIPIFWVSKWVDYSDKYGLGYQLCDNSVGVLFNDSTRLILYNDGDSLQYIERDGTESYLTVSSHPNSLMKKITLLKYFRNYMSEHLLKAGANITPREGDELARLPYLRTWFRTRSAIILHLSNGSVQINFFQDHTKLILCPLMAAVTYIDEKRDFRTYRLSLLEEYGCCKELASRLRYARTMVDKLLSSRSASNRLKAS

Structure (SMILES): CN(C)CCN1C(=O)c2cccc3c(S(=O)(=O)NCc4ccc(C(F)(F)F)cc4)ccc(c23)C1=O [B4]
- Kd: ~5.6 µM
